Assay results: the supplement of paper PMC10307832

How the values were obtained:
Experiment in all cases: relative viability (nuclei count vs DMSO), 5 days (fraction); higher = more cells survive
Motesanib + Foretinib = compound: CC1(C)CNc2cc(NC(=O)c3cccnc3NCc3ccncc3)ccc21 [Motesanib] + COc1cc2c(Oc3ccc(NC(=O)C4(C(=O)Nc5ccc(F)cc5)CC4)cc3F)ccnc2cc1OCCCN1CCOCC1 [Foretinib] (partner 0.25 µM)
Procedure, shortened: (§1)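 Five library-drug doses in √10 steps were combined with a fixed anchor-drug dose, or a single drug was given alone, by pin tool to lung cancer cell lines in 1536-well plates the day after seeding. Nuclei were stained and counted after 5 days. Relative viability is the nuclei count in treated wells over that in vehicle wells, taken as the median of duplicate plates.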

Motesanib + Vorinostat = compound: CC1(C)CNc2cc(NC(=O)c3cccnc3NCc3ccncc3)ccc21 [Motesanib] + O=C(CCCCCCC(=O)Nc1ccccc1)NO [Vorinostat] (partner 1 µM)
Procedure, shortened: as §1

[1] = compound: C[C@@]1(C(=O)Nc2ccc(F)nc2)CCCN1c1nc(Nc2cc(C3CC3)n[nH]2)c2cccn2n1 + CC(=O)Nc1cccc(-n2c(=O)n(C3CC3)c(=O)c3c(Nc4ccc(I)cc4F)n(C)c(=O)c(C)c32)c1 [Trametinib] (partner 0.02 µM)
Procedure, shortened: as §1

[2] = compound: C[C@@]1(C(=O)Nc2ccc(F)nc2)CCCN1c1nc(Nc2cc(C3CC3)n[nH]2)c2cccn2n1 + CC1(C)CCC(c2ccc(Cl)cc2)=C(CN2CCN(c3ccc(C(=O)NS(=O)(=O)c4ccc(N[C@H](CCN5CCOCC5)CSc5ccccc5)c(S(=O)(=O)C(F)(F)F)c4)cc3)CC2)C1 [Navitoclax] (partner 0.5 µM)
Procedure, shortened: as §1

| Cell Line | relative viability (Motesanib + Foretinib; first compound 0.01 µM) | relative viability (Motesanib + Foretinib; first compound 0.03162 µM) | relative viability (Motesanib + Foretinib; first compound 0.1 µM) | relative viability (Motesanib + Foretinib; first compound 0.3162 µM) | relative viability (Motesanib + Foretinib; first compound 1 µM) | relative viability (Motesanib + Vorinostat; first compound 0.01 µM) | relative viability (Motesanib + Vorinostat; first compound 0.03162 µM) | relative viability (Motesanib + Vorinostat; first compound 0.1 µM) | relative viability (Motesanib + Vorinostat; first compound 0.3162 µM) | relative viability (Motesanib + Vorinostat; first compound 1 µM) | relative viability ([1]; first compound 0.04 µM) | relative viability ([1]; first compound 0.1265 µM) | relative viability ([1]; first compound 0.4 µM) | relative viability ([1]; first compound 1.265 µM) | relative viability ([2]; first compound 0.04 µM) | relative viability ([2]; first compound 0.1265 µM) | relative viability ([2]; first compound 1.265 µM) | relative viability ([2]; first compound 0.4 µM) |
| --- | --- | --- | --- | --- | --- | --- | --- | --- | --- | --- | --- | --- | --- | --- | --- | --- | --- | --- |
| SK-MES-1 | 0.949 | 0.963 | 0.982 | 0.945 | 0.86 | 1.13 | 1.12 | 1.25 | 1.16 | 1.16 | 0.604 | 0.483 | 0.522 | 0.633 | 1.3 | 0.995 | 1.1 |  |
| SW 1573 | 0.772 | 0.905 | 0.93 | 0.936 | 1.08 | 0.77 | 0.799 | 0.738 | 0.834 | 1.04 | 0.496 | 0.389 | 0.368 | 0.412 | 0.875 | 0.471 | 0.8 | 0.655 |
